The record followed here is publication PMC6522510 (Nature Communications, 2019).

Each structure is given as a SMILES string.

Holding throughout (design): species or system AML cell lines (8); Primary HTS, single concentration about 10 uM, Cell Titer Glo viability; log10 luminescence, per cent inhibition relative to cycloheximide control
Conditions in all cases: 72 h, relative to cycloheximide control, log10 luminescence; inhibitor

The subject of assay [1] is CHRF288-11.
Assay [2] deals with CMK.
Assay [3] concerns CMS.
Assay [4] relates to M07e.
Assay [5] deals with ML-2.
The subject of assay [6] is MOLM-13.
The test system of assay [7] is MV4-11.
In assay [8] the test system is U937.

As for `N#Cc1c(NC(=O)CN2CCOCC2)sc2c1CCCC2` [SJ000573317-1, ST/830472], the CHRF288-11 %inh in assay [1] stood at 1.546%. Also, the CMK %inh in assay [2] is -5.985%. Also, in assay [3], the CMS %inh was found to be 0.5199%. Besides, in assay [4], the M07e %inh stood at 3.047%. Moreover, the ML-2 %inh in assay [5] was found to be 1.88%. Also, the MOLM-13 %inh in assay [6] was -0.7057%. For the same molecule, the MV4-11 %inh in assay [7] was -2.657%. Further, in assay [8], the U937 %inh stood at 3.525%.
Consider `c1cnn2ncc(-c3ccnc(Nc4ccc5c(c4)OCCO5)n3)c2c1` [SJ000573318-1, U18020/87/1], for which the CHRF288-11 %inh in assay [1] was 71.61%. Also, the CMK %inh in assay [2] amounted to 109.1%. Also, in assay [3], the CMS %inh is 106%. Moreover, the M07e %inh in assay [4] is listed as 112.6%. In assay [5], the ML-2 %inh was determined as 59.44%. For the same molecule, the MOLM-13 %inh in assay [6] came out at 99.59%. Moreover, in assay [7], the MV4-11 %inh came out at 79.44%. For the same molecule, in assay [8], the U937 %inh is listed as 81.34%.
On to `COc1cc(Nc2nccc(Nc3ccc4c(C)n[nH]c4c3)n2)cc(OC)c1OC` [SJ000573319-1, U17574/67/1], for which the CHRF288-11 %inh in assay [1] is 80.56%. The CMK %inh in assay [2] came to 114.1%. The CMS %inh in assay [3] is given as 87.58%. In assay [4], the M07e %inh worked out at 71.44%. For the same molecule, the ML-2 %inh in assay [5] stood at 29.66%. In assay [6], the MOLM-13 %inh is reported as 98.77%. Further, the MV4-11 %inh in assay [7] was found to be 77.98%. Moreover, the U937 %inh in assay [8] is 62.59%.
With `CCn1cc(-c2ccnc3[nH]ccc23)c(-c2cccc(NC(=O)Nc3ccc(OCc4ccccc4)cc3)c2)n1` [SJ000573320-1, R11459/78/21], in assay [1], the CHRF288-11 %inh was found to be 55.15%. Besides, the CMK %inh in assay [2] was determined as 77.69%. Besides, in assay [3], the CMS %inh was determined as 4.452%. Also, in assay [4], the M07e %inh is 13.09%. In addition, the ML-2 %inh in assay [5] turned out to be 18.08%. Moreover, the MOLM-13 %inh in assay [6] is given as 71.46%. Further, the MV4-11 %inh in assay [7] was found to be 7.18%. In addition, the U937 %inh in assay [8] was found to be 1.634%.
As to `Nc1ncc(-c2cccc(S(N)(=O)=O)c2)c2scc(-c3ccc(F)c(Cl)c3)c12` [SJ000573321-1, T398/119/1], in assay [1], the CHRF288-11 %inh worked out at 3.763%. Also, the CMK %inh in assay [2] was 13%. Also, the CMS %inh in assay [3] was found to be 4.233%. For the same molecule, the M07e %inh in assay [4] stood at 3.71%. Also, in assay [5], the ML-2 %inh is recorded as 3.028%. In addition, the MOLM-13 %inh in assay [6] was 16.59%. Besides, the MV4-11 %inh in assay [7] stood at 8.004%. Also, the U937 %inh in assay [8] was determined as 8.699%.
For `COc1ccc2ncn(-c3cc(O[C@H](C)c4ccccc4C(F)(F)F)c(C(N)=O)s3)c2c1` [SJ000573322-1, U20814/199/10], the CHRF288-11 %inh in assay [1] was found to be 71.55%. Also, in assay [2], the CMK %inh came to 113.1%. The CMS %inh in assay [3] is listed as 76.93%. Further, in assay [4], the M07e %inh turned out to be 100.1%. The ML-2 %inh in assay [5] is 37.32%. In assay [6], the MOLM-13 %inh is listed as 82.54%. For the same molecule, the MV4-11 %inh in assay [7] amounted to 71.74%. In addition, in assay [8], the U937 %inh is listed as 82.26%.
For `COc1ccc(-c2coc3ncnc(N)c23)cc1` [SJ000573323-1, R6872/61/3], in assay [1], the CHRF288-11 %inh is recorded as 1.277%. Moreover, the CMK %inh in assay [2] was 0.752%. The CMS %inh in assay [3] is reported as -2.18%. In addition, the M07e %inh in assay [4] is given as -2.594%. For the same molecule, the ML-2 %inh in assay [5] is reported as -3.247%. Further, the MOLM-13 %inh in assay [6] turned out to be 0.9708%. Also, the MV4-11 %inh in assay [7] is on record as -1.377%. Moreover, the U937 %inh in assay [8] worked out at 2.094%.
Consider `NS(=O)(=O)c1ccc(Nc2cc(-c3cccc(O)c3)n[nH]2)cc1` [SJ000573324-1, T350/111/20], for which the CHRF288-11 %inh in assay [1] is listed as -4.339%. For the same molecule, the CMK %inh in assay [2] was -2.15%. In addition, the CMS %inh in assay [3] stood at 0.8193%. Also, the M07e %inh in assay [4] is -0.9399%. Further, in assay [5], the ML-2 %inh is 1.059%. Further, the MOLM-13 %inh in assay [6] came to 21.76%. Also, the MV4-11 %inh in assay [7] stood at 18.96%. Further, the U937 %inh in assay [8] is -2.304%.
Take `Cc1ccc(-c2cc3c(NC(=O)C4CC4)ncnc3o2)cc1` [SJ000573325-1, T337/155/21]: the CHRF288-11 %inh in assay [1] is listed as 1.899%. Besides, the CMK %inh in assay [2] is recorded as -5.745%. In assay [3], the CMS %inh was 1.223%. For the same molecule, in assay [4], the M07e %inh came to 5.01%. Moreover, the ML-2 %inh in assay [5] was 1.949%. Moreover, the MOLM-13 %inh in assay [6] was -1.693%. In assay [7], the MV4-11 %inh was -4.319%. Further, in assay [8], the U937 %inh is given as -2.342%.
Regarding `NS(=O)(=O)c1cccc(Nc2cc(-c3ccc(F)cc3)n[nH]2)c1` [SJ000573326-1, T350/64/20], the CHRF288-11 %inh in assay [1] was -0.9199%. In addition, in assay [2], the CMK %inh is -1.826%. Besides, the CMS %inh in assay [3] came out at 1.139%. For the same molecule, the M07e %inh in assay [4] was 6.143%. Further, the ML-2 %inh in assay [5] worked out at 1.419%. Also, in assay [6], the MOLM-13 %inh was 68.76%. Also, the MV4-11 %inh in assay [7] was found to be 42.33%. The U937 %inh in assay [8] is on record as -2.237%.
As to `CCn1c(-c2nonc2N)nc2c(C#CC(C)(C)O)nc(O[C@@H](CN)c3ccccc3)cc21` [SJ000573327-1, MS208738-058A1], the CHRF288-11 %inh in assay [1] is on record as 92%. In addition, the CMK %inh in assay [2] came to 85.94%. Besides, the CMS %inh in assay [3] was 81.02%. Further, the M07e %inh in assay [4] amounted to 123.2%. In addition, in assay [5], the ML-2 %inh turned out to be 56.05%. Also, the MOLM-13 %inh in assay [6] was 95.38%. In addition, in assay [7], the MV4-11 %inh was 81.31%. Further, the U937 %inh in assay [8] was 77.05%.
On to `CCCN1CCC(c2ccc(Nc3nc(Nc4cc(F)ccc4C(N)=O)c4cc[nH]c4n3)c(OC)c2)CC1` [SJ000573328-1, U23536/58/1], for which the CHRF288-11 %inh in assay [1] is given as 106.3%. The CMK %inh in assay [2] was determined as 51.59%. The CMS %inh in assay [3] was determined as 49%. Also, the M07e %inh in assay [4] came out at 37.4%. Moreover, in assay [5], the ML-2 %inh was 55.61%. The MOLM-13 %inh in assay [6] is 66.64%. Further, the MV4-11 %inh in assay [7] was 58.24%. In addition, in assay [8], the U937 %inh stood at 63.82%.
In the case of `O=C(O[C@H]1CN[C@H](C#Cc2cc3ncnc(Nc4ccc(OCc5cccc(F)c5)c(Cl)c4)c3s2)C1)N1CCOCC1` [SJ000573329-1, U20348/87/4], the CHRF288-11 %inh in assay [1] was 79.21%. Further, in assay [2], the CMK %inh came out at 8.904%. Besides, the CMS %inh in assay [3] was 8.758%. Besides, the M07e %inh in assay [4] was -3.855%. In addition, the ML-2 %inh in assay [5] is given as 22.51%. In addition, in assay [6], the MOLM-13 %inh is 4.591%. In assay [7], the MV4-11 %inh was found to be 10.03%. The U937 %inh in assay [8] came out at 6.089%.
For the molecule `N#Cc1cccc(Nc2nccc(-c3cnn4ncccc34)n2)c1` [SJ000573330-1, U19339/96/3], the CHRF288-11 %inh in assay [1] is 55.56%. Further, in assay [2], the CMK %inh came out at 106.6%. Besides, the CMS %inh in assay [3] worked out at 104.6%. For the same molecule, the M07e %inh in assay [4] is given as 113.8%. Besides, the ML-2 %inh in assay [5] came out at 56.71%. The MOLM-13 %inh in assay [6] stood at 98.39%. The MV4-11 %inh in assay [7] came to 85.56%. The U937 %inh in assay [8] was determined as 80.06%.
For `Nc1ncnc2occ(-c3ccc(NC(=O)Nc4cc(C(F)(F)F)cc(C(F)(F)F)c4)cc3)c12` [SJ000573331-1, T299/133/15], the CHRF288-11 %inh in assay [1] is 6.057%. In addition, the CMK %inh in assay [2] was found to be 3.982%. For the same molecule, in assay [3], the CMS %inh is 4.245%. For the same molecule, the M07e %inh in assay [4] was 1.156%. Further, the ML-2 %inh in assay [5] came to 1.52%. The MOLM-13 %inh in assay [6] came out at 93.65%. In assay [7], the MV4-11 %inh was 73.61%. Also, the U937 %inh in assay [8] came out at 4.807%.
Regarding `CC(=O)Nc1cccc(C#Cc2cncnc2Nc2ccc(OCc3cccc(F)c3)c(Cl)c2)c1` [SJ000573332-1, U21935/99/1], in assay [1], the CHRF288-11 %inh is reported as 3.642%. Also, in assay [2], the CMK %inh is given as -0.8317%. For the same molecule, the CMS %inh in assay [3] turned out to be 0.8612%. Further, the M07e %inh in assay [4] is listed as 1.101%. The ML-2 %inh in assay [5] turned out to be 1.213%. In assay [6], the MOLM-13 %inh came out at 0.3704%. In addition, the MV4-11 %inh in assay [7] stood at 0.9824%. The U937 %inh in assay [8] was 4.462%.
Turning to `CCn1c(-c2nonc2N)nc2c(C#CC(C)(C)O)ncc(OC[C@@H]3CCCN3)c21` [SJ000573333-1, ML205742-149B0], the CHRF288-11 %inh in assay [1] was determined as 13.49%. In assay [2], the CMK %inh was determined as 15.2%. Moreover, the CMS %inh in assay [3] was 14%. In addition, in assay [4], the M07e %inh was found to be 9.925%. Also, the ML-2 %inh in assay [5] came out at 7.469%. Further, the MOLM-13 %inh in assay [6] stood at 74.82%. Besides, the MV4-11 %inh in assay [7] worked out at 16.86%. Further, the U937 %inh in assay [8] is 42.79%.
`O=C(O[C@H]1CN[C@H](C#Cc2cc3ncnc(Nc4ccc(Cc5ccccc5)cc4)c3s2)C1)N1CCOCC1` [SJ000573334-1, U20046/184/1]: the CHRF288-11 %inh in assay [1] is 4.257%. The CMK %inh in assay [2] is listed as 86.74%. Also, in assay [3], the CMS %inh was 1.486%. For the same molecule, the M07e %inh in assay [4] is recorded as 4.781%. In addition, the ML-2 %inh in assay [5] came out at 11.25%. In assay [6], the MOLM-13 %inh worked out at 61.51%. Moreover, in assay [7], the MV4-11 %inh is given as 4.189%. Moreover, the U937 %inh in assay [8] is 2.636%.
